Test results from patent US4798807A, “Monoclonal antibodies and method for detecting dioxins and dibenzofurans” (priority 1986, dated 1989).

Assays:
monoclonal antibody DD-3 = assay: Competition ELISA with monoclonal antibody DD-3; assay type: binding, BALB/c mice; conditions: competitor vs monoclonal antibody DD-3; plate coated with A-triCDD-RSA
Description: (§1) In this case the hybridomas were then screened for their ability to distinguish A-triCDD-BSA and A-triCDD-RSA from BSA and RSA. On the basis of this initial screen about 25 stable, antibody-producing colonies were isolated, subcloned, and frozen. The remaining clones were again screened for their abilities to recognize free TCDD in suspension. Experimentally, on the order of 10-100 nanograms of TCDD in hexane was dried, 0.5 ml of saline with BSA (1 mg/ml) was added and sonificated for 2 hrs. […] Identical procedures were followed for other dioxin isomers. A dilution series in microtiter plate wells was then made with the suspended TCDD, antibody adde, and the competition ELISA completed. Competition ELISA test procedures are discussed in detail in the following reference: Butt, W. R. (1984) "Practical Immunoassay: The State of the Art", Marcel Dekker, Inc., N.Y., N.Y.
(§2) A large part of the success that we have had in characterizing the binding specificities of our monoclonal antibodies comes from having developed a reliable competition ELISA protocol. Our preferred assay starts from stock solutions at 10 ppm in hexane of the various compounds listed in Table I. 10 μl of hexane solution is aliquoted into a small vial, evaporated under a stream of nitrogen gas, and 500 μl of a 1 mg/ml solution of BSA in phosphate buffered saline with 0.1% BSA is added. The vial is capped and placed in an ultrasonic cleaning waterbath for two hours. Two hours of sonification gives a more reproducible assay than does an hour. During the sonification, the hexane appears to evaporate completely, and one is left with an aqueous solution containing the dioxin. Microtiter plates coated with A-triCDD-RSA are blocked with a three percent solution of ovalbumin and a two-fold dilution series of sonificated dioxin-BSA is then made, covering the range 100 ppb-0.1 ppb. In each well of the plate 100 μl of the sonificated dioxin-BSA solution is mixed with n equal volume of antibody. The antibody partitions between the dioxin adsorbed to the BSA, and the A-tri-CDD-RSA on the plate.
(§3) A-TriCDD-RSA was adsorbed onto the surface of the wells of a microtiter plate. The various competitors listed were suspended in saline containing bovine serum albumin (BSA). These solutions were made by sonificating 10 μl of dioxin solution in hexane with 500 μl of saline-BSA. A dilution series of these dioxin-BSA solutions was then made covering the range of 100-0.2 ppb, and placed in the microtiter plate wells. An equal volume of DD-1 monoclonal antibody was then added, and allowed to react for 1 hour. Tne antibody binds either to the A-TriCDD-RSA on the plate or the dioxin in solution. After the hour, the solution phase is removed, the plate washed, and it is reincubated for an hour with peroxidase-conjugated goat-anti-mouse-immunoglobulins. A second washing is then done, and substrate (ABTS) added to the peroxidase. The enzyme-antibody conjugate and substrate function as a "developer", allowing the visualization of the DD-1 bound to the A-triCDD-RSA on the plate. Results are then expressed as a fraction of the response in wells with no competitor. […] At about 20 ppb of 2,3,7,8-TCDD the relative ELISA response is half of control, meaning that half the DD-1 antibody bound to the solution phase dioxin and half bound to the A-triCDD-RSA on the plate. For 1,2,3,7(8)-TCDD, 50% inhibition occurs at about 4 ppb, indicating the DD-1 prefers 1,2,3,7(8)-TCDD to 2,3,7,8-TCDD.
(§4) The FIGURE and Table II show representative competition data using several chlorinated compounds as competitors. From such data, one can determine the concentration required to inhibit antibody binding by 50% (I50). Table II lists the I50 for all compounds tested with the antibodies. In reporting these values, factors of two are about the limit of significance. […] The binding specificities of these antibodies are highly desirable, since they prefer the most toxic of the dioxin and dibenzofuran isomers.

monoclonal antibody DD-1 = assay: Competition ELISA with monoclonal antibody DD-1; assay type: binding, Biozzi mice; conditions: for I50 (inhibits antibody binding by 50%): competitor vs monoclonal antibody DD-1, plate coated with A-triCDD-RSA
Description: as §1, §2, §3, §4

monoclonal antibody DD-6 = assay: Competition ELISA with monoclonal antibody DD-6; assay type: binding, Biozzi mice; conditions: competitor vs monoclonal antibody DD-6; plate coated with A-triCDD-RSA
Description: as §1, §2, §3, §4

monoclonal antibody DD-4 = assay: Competition ELISA with monoclonal antibody DD-4; assay type: binding, BALB/c mice; conditions: competitor vs monoclonal antibody DD-4; plate coated with A-triCDD-RSA
Description: as §1, §2, §3, §4

monoclonal antibody DD-5 = assay: Competition ELISA with monoclonal antibody DD-5; assay type: binding, Biozzi mice; conditions: competitor vs monoclonal antibody DD-5; plate coated with A-triCDD-RSA
Description: as §1, §2, §3, §4

[1] = test system: monoclonal antibodies DD-1, DD-3, DD-4, DD-5 and DD-6; assay: Competition ELISA, statements for all antibodies together; assay type: binding, BALB/c and Biozzi mice; conditions: up to the highest concentration tested (100 ppb)
Description: as §1, §2, §3, §4

| SMILES | I50 (inhibits antibody binding by 50%) (monoclonal antibody DD-3) [ng] | I50 (inhibits antibody binding by 50%) (monoclonal antibody DD-1) [ng] | I50 (inhibits antibody binding by 50%) (monoclonal antibody DD-6) [ng] | I50 (inhibits antibody binding by 50%) (monoclonal antibody DD-4) [ng] | I50 (inhibits antibody binding by 50%) (monoclonal antibody DD-5) [ng] | reactivity of all antibodies with competitor [1] | reaction of DD-1 with competitor (monoclonal antibody DD-1; FIGURE, DD-1, 100-0.2 ppb) |
| --- | --- | --- | --- | --- | --- | --- | --- |
| Clc1ccccc1 [Chlorobenzene] | > 2000 | > 2000 | > 2000 | > 2000 | > 2000 |  |  |
| Clc1ccc(C(c2ccc(Cl)cc2)C(Cl)(Cl)Cl)cc1 [DDT] | > 2000 | > 2000 | > 2000 | > 2000 | > 2000 |  |  |
| O=S1OCC2C(CO1)C1(Cl)C(Cl)=C(Cl)C2(Cl)C1(Cl)Cl (stereo not drawn) [Endosulfan] | > 2000 | > 2000 | > 2000 | > 2000 | > 2000 |  |  |
| ClC1=C(Cl)C2(Cl)C3C4CC(C5OC45)C3C1(Cl)C2(Cl)Cl (stereo not drawn) [Endrin] | > 2000 | > 2000 | > 2000 | > 2000 | > 2000 |  |  |
| ClC1=C(Cl)C2(Cl)C3C(Cl)C=CC3C1(Cl)C2(Cl)Cl (stereo not drawn) [Heptachlor] | > 2000 | > 2000 | > 2000 | > 2000 | > 2000 |  |  |
| O=C1C2(Cl)C3(Cl)C4(Cl)C(Cl)(Cl)C5(Cl)C3(Cl)C1(Cl)C5(Cl)C24Cl (stereo not drawn) [Kepon] | > 2000 | > 2000 | > 2000 | > 2000 | > 2000 |  |  |
| Clc1c(Cl)c(Cl)c2c(oc3c(Cl)c(Cl)c(Cl)c(Cl)c32)c1Cl [Octachloro-DBF] | > 200 | > 200 | > 200 | > 200 | > 10 | either do not react or react only marginally |  |
| Clc1c(Cl)c(Cl)c2c(c1Cl)Oc1c(Cl)c(Cl)c(Cl)c(Cl)c1O2 [Octachloro-DD, octachlorodibenzodioxin] | > 200 | > 200 | > 200 | > 200 | > 10 | either do not react or react only marginally | does not react |
| Oc1c(Cl)c(Cl)c(Cl)c(Cl)c1Cl [Pentachlorophenol] | > 2000 | > 2000 | > 2000 | > 2000 | > 2000 |  |  |
